# Patent US20260297083A1, “SUBSTITUTED ACETYLENE COMPOUND DERIVATIVES AND THEIR PHARMACEUTICAL USE” (AVELOS THERAPEUTICS INC., priority 2023, published 2026)
# Molecular target: T1, Polθ polymerase domain (amino acids 1792-2590) (Homo sapiens, UniProt O75417)
# T1 construct: 10×Histidine-SUMO (N, cleaved yes); made in house; host or cells: E. coli
# T1 sequence (O75417 1792-2590): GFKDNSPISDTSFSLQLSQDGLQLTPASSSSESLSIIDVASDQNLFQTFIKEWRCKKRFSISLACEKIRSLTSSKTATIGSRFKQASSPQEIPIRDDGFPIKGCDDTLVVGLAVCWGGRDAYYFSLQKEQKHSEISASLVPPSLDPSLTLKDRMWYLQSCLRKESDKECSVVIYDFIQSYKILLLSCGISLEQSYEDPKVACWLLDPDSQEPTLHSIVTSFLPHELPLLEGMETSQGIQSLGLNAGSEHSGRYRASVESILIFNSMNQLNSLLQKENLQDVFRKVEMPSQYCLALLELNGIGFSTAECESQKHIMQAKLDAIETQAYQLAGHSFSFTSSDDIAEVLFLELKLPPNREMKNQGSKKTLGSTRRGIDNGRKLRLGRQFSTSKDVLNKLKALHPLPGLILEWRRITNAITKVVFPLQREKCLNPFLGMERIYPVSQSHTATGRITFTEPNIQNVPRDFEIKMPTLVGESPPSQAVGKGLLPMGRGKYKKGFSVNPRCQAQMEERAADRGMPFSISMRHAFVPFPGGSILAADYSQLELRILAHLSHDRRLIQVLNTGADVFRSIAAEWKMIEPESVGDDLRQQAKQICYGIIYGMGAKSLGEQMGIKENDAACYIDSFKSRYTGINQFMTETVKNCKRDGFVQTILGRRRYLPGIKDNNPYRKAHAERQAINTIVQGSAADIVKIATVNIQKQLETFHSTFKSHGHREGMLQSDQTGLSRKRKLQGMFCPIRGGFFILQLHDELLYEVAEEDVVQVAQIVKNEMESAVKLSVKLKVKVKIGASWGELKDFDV
# Assay: Picogreen assay of Polθ polymerase activity
# Format: biochemical
# Settings: 12-point concentration response, 90 minutes incubation at room temperature, 8 nM Polθ in 2×polymerase mixture, read-out: PolQ IC50
# Description: The DNA sequence of the polQ gene (Genebank ID #NM 199420.4) was chemically synthesized. The DNA sequence encoding the polymerase domain (amino acids 1792-2590) was subcloned into an E. coli expression plasmid, resulting in the fusion of 10×Histidine-SUMO tag at the N terminus of the polymerase domain.
# The protein was expressed in E. coli. and purified using a 2-step IMAC (immobilized metal chelate affinity chromatography) procedure. Briefly stated, the overexpressed E. coli lysate was subjected to Ni-NTA purification, and an N-terminal tag was digested by a SUMO protease. Then, the excised fragment of 10×Histidine-SUMO tag was removed using Ni-NTA beads. The resulting protein was used for the Picogreen assay, as described below.
# The methods of DNA complex preparation were slightly modified from the protocol previously reported (Zatreanu et al., 2021, Nature Communications, 12:3636). Briefly stated, polθ substrate was prepared by mixing Oligo1 (5′-GCG GCT GTC ATA AG-3′) and Oligo2 (5′-GCTACATTGACAATGGCATCAAATCTCAGATTGCGTCTTATGACAGCCGCG-3′) in an annealing buffer (20 mM Tris-Cl, pH 7.5, 50 mM NaCl) to the final concentration of 22 uM and 20 uM, respectively. The Polθ product was prepared by mixing Oligo3 (5′-CGCGGCTGTCATAAGACGCAATCTGAGATTTGATGCCATTGTCAATGTAGC-3′) and Oligo2 (5′-GCTACATTGACAATGGCATCAAATCTCAGATTGCGTCTTATGACAGCCGCG-3′) to the final concentration of 20 uM. The polθ product was used for the top signal control in the Picogreen assay. Both substrate and product were heated to 95° C. […] and cooled slowly to room temperature.
# To evaluate the ability of test compounds to inhibit the activity of polθ in vitro, a Picogreen assay was performed to measure polθ IC50 (nM).
# The reactions were performed at room temperature in an assay buffer (25 mM Tris-HCl, pH 7.5, 12.5 mM NaCl, 0.5 mM MgCl2, 5% (v/v) glycerol, 0.01% (v/v) Triton X-100, 0.01% (w/v) Bovine serum albumin, 1 mM DTT). Thirty microliters of 2×polymerase mixture (8 nM Polθ enzyme in an assay buffer) were distributed to 96 well plates, test compounds were prepared by dilution in 100% DMSO to obtain the correct dose range for a 12-point concentration response and 1 μl was dispensed into each well, and then 30 microliters of 2×substrate mix (100 nM DNA and 40 uM dNTPs in an assay buffer) was added. After 90 minutes of incubation, the reaction was stopped and DNA was stained by adding 40 microliters of Picogreen solution (1:80 dilution of Picogreen, Invitrogen, Cat #P7581, 25 mM Tris-HCl, pH 7.5, 10 mM EDTA, pH 7.5).
# The fluorescence intensity was measured at excitation/emission=485 nm/520 nm using an Ensight plate reader (Perkin Elmer). The data was analyzed by GraphPad Prism software (Version 8.4.3) to calculate IC50.
row,Compound,IC50
1,Cc1cc(C(F)(F)F)cc(N2[C@H](C(=O)N(CC#Cc3nccc(N4CCOCC4)n3)c3ccc(F)c(C)c3)CCS2(=O)=O)n1 [compound 80],1 to 50 nM
2,Cc1cc(C(F)(F)F)cc(N2[C@H](C(=O)N(CC#Cc3ncc(C(N)=O)cn3)c3ccc(F)c(C)c3)CCS2(=O)=O)n1 [compound 81],> 101 nM
3,Cc1cc(C(F)(F)F)cc(N2[C@H](C(=O)N(CC#Cc3ncc(C(=O)N4CCOCC4)cn3)c3ccc(F)c(C)c3)CCS2(=O)=O)n1 [compound 82],51 to 100 nM
4,Cc1cc(C(F)(F)F)cc(N2[C@H](C(=O)N(CC#Cc3ncc(C(=O)N4C5CCC4COC5)cn3)c3ccc(F)c(C)c3)CCS2(=O)=O)n1 [compound 83],1 to 50 nM
5,Cc1cc(C(F)(F)F)cc(N2[C@H](C(=O)N(CC#Cc3ccc(N4CCOCC4)cn3)c3ccc(F)c(C)c3)CCS2(=O)=O)n1 [compound 84],1 to 50 nM
6,Cc1cc(C(F)(F)F)cc(N2[C@H](C(=O)N(CC#Cc3ccc(N4CCOCC4)nc3)c3ccc(F)c(C)c3)CCS2(=O)=O)n1 [compound 85],1 to 50 nM
7,Cc1cc(C(F)(F)F)cc(N2[C@H](C(=O)N(CC#Cc3cccc(N4CCOCC4)n3)c3ccc(F)c(C)c3)CCS2(=O)=O)n1 [compound 86],1 to 50 nM
8,Cc1cc(C(F)(F)F)cc(N2[C@H](C(=O)N(CC#Cc3cccc(=O)[nH]3)c3ccc(F)c(C)c3)CCS2(=O)=O)n1 [compound 87],51 to 100 nM
9,Cc1cc(C(F)(F)F)cc(N2[C@H](C(=O)N(CC#Cc3cccc(OC(C)C)n3)c3ccc(F)c(C)c3)CCS2(=O)=O)n1 [compound 88],> 101 nM
10,Cc1cc(C(F)(F)F)cc(N2[C@H](C(=O)N(CC#Cc3cccc(OC(F)F)n3)c3ccc(F)c(C)c3)CCS2(=O)=O)n1 [compound 89],51 to 100 nM
11,Cc1cc(C(F)(F)F)cc(N2[C@H](C(=O)N(CC#Cc3cc(C)c(F)c(C)n3)c3ccc(F)c(C)c3)CCS2(=O)=O)n1 [compound 90],51 to 100 nM
12,Cc1cc(C(F)(F)F)cc(N2[C@H](C(=O)N(CC#Cc3cc(C)c(N)c(C)n3)c3ccc(F)c(C)c3)CCS2(=O)=O)n1 [compound 91],1 to 50 nM
13,Cc1cc(C(F)(F)F)cc(N2[C@H](C(=O)N(CC#Cc3cccc(=O)n3C)c3ccc(F)c(C)c3)CCS2(=O)=O)n1 [compound 92],1 to 50 nM
14,Cc1cc(C(F)(F)F)cc(N2[C@H](C(=O)N(CC#Cc3ccc(F)cn3)c3ccc(F)c(C)c3)CCS2(=O)=O)n1 [compound 93],1 to 50 nM
15,Cc1cc(C(F)(F)F)cc(N2[C@H](C(=O)N(CC#Cc3ccc(F)c(C(C)C)n3)c3ccc(F)c(C)c3)CCS2(=O)=O)n1 [compound 94],51 to 100 nM
16,Cc1cc(C(F)(F)F)cc(N2[C@H](C(=O)N(CC#Cc3ccc(C(N)=O)nc3)c3ccc(F)c(C)c3)CCS2(=O)=O)n1 [compound 95],1 to 50 nM
17,Cc1cc(C(F)(F)F)cc(N2[C@H](C(=O)N(CC#Cc3cnc(C(N)=O)c(F)c3)c3ccc(F)c(C)c3)CCS2(=O)=O)n1 [compound 96],1 to 50 nM
18,Cc1cc(C(F)(F)F)cc(N2[C@H](C(=O)N(CC#Cc3ccc(C(N)=O)cn3)c3ccc(F)c(C)c3)CCS2(=O)=O)n1 [compound 97],1 to 50 nM
19,Cc1cc(C(F)(F)F)cc(N2[C@H](C(=O)N(CC#Cc3cnc4c(c3)CN(C)C4=O)c3ccc(F)c(C)c3)CCS2(=O)=O)n1 [compound 98],1 to 50 nM
20,Cc1cc(C(F)(F)F)cc(N2[C@H](C(=O)N(CC#Cc3cnc4c(c3)C(C)(C)N(C)C4=O)c3ccc(F)c(C)c3)CCS2(=O)=O)n1 [compound 99],1 to 50 nM
21,Cc1cc(C(F)(F)F)cc(N2[C@H](C(=O)N(CC#Cc3cnc4c(c3)C(=O)N(C)C4=O)c3ccc(F)c(C)c3)CCS2(=O)=O)n1 [compound 100],1 to 50 nM
22,Cc1cc(C(F)(F)F)cc(N2[C@H](C(=O)N(CC#Cc3n[nH]c(=O)c4ccccc34)c3ccc(F)c(C)c3)CCS2(=O)=O)n1 [compound 101],51 to 100 nM
23,Cc1cc(C(F)(F)F)cc(N2[C@H](C(=O)N(CC#Cc3cncn3C)c3ccc(F)c(C)c3)CCS2(=O)=O)n1 [compound 102],1 to 50 nM
24,Cc1cc(C(F)(F)F)cc(N2[C@H](C(=O)N(CC#Cc3ncnc(N4CCOCC4)n3)c3ccc(F)c(C)c3)CCS2(=O)=O)n1 [compound 103],> 101 nM
